Experimental data: patent US6896895B2, “Carotenoid esters, carotenoid-enriched feeds, and methods of pigmenting foods and foodstuffs” (DSM IP Assets B.V., priority 2000, dated 2005)

Tests used:
[1] = Carotenoid ester content in plasma, back skin and abdominal fat of broilers (HPLC); type: in vivo, broiler chickens (Ross 308, Ross 508)
Method in brief: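 Ross 308/508 broilers, raised on low-carotenoid basal diet (<2 mg xanthophylls/kg) to day 15 or 22, then fed pigment-supplemented diet for three weeks; plasma sampled day 42, back skin and abdominal fat pooled per group at slaughter on day 44. Carotenoid esters quantified by normal-phase HPLC (0.5% acetone in n-hexane) calibrated with all-E ethyl β-apo-8′-carotenoate; Z-isomers corrected by factor 1.4.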

[2] = test system: skin and shanks of broilers; assay: Reflectance colorimetry and visual classification of skin and shanks of broilers; type: in vivo, broiler chickens (Ross 308, Ross 508); set-up: key to Shanks Visual Classification / Skin Visual Classification: −; (+); +; ++ = good color; o = orange
Method in brief: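 Ross broilers were fed a low-carotenoid basal diet (<2 mg xanthophylls/kg), then received pigment-supplemented diet for three weeks and were slaughtered on day 44. Back-skin colour (mean of three points) and shank colour (single reading) were measured by Minolta chromameter (D65, 0°) and reported as CIE L*a*b*, h* and C*, averaged over ten birds (5 male, 5 female).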

[3] = average over doses, in relation to the controls (CAROPHYLL Yellow) of the same trial, Table 3
[4] = trial MC-24/99, 20 mg/kg feed, in relation to the controls of the same trial
[5] = trial MC-24/99, 30 mg/kg feed, in relation to the controls of the same trial
[6] = dry carcasses, average over doses, Table 5
[7] = dry carcasses, trial MC-24/99, 20 mg/kg feed
[8] = dry carcasses, trial MC-24/99, 30 mg/kg feed

- Analytical Content as Equivalent of Ethyl β-apo-8′-carotenoate Fat % [1, 3]: 85%
- Analytical Content as Equivalent of Ethyl β-apo-8′-carotenoate Plasma % [1, 3]: 88%
- Analytical Content as Equivalent of Ethyl β-apo-8′-carotenoate Skin % [1, 3]: 134%
- concentrations determined as equivalents of the ethyl β-apo-8′-carotenoate, in the skin ([1]; in comparison to the other 12 tested carotenoid esters): substantially higher
- Analytical Content as Equivalent of Ethyl β-apo-8′-carotenoate Fat ([1]; trial MC-24/99, 20 mg/kg feed): 2.6 mg/kg
- Analytical Content as Equivalent of Ethyl β-apo-8′-carotenoate Plasma ([1]; trial MC-24/99, 20 mg/kg feed): 9.6 mg/kg
- Analytical Content as Equivalent of Ethyl β-apo-8′-carotenoate Skin ([1]; trial MC-24/99, 20 mg/kg feed): 3.6 mg/kg
- Analytical Content as Equivalent of Ethyl β-apo-8′-carotenoate Fat % [1, 4]: 83%
- Analytical Content as Equivalent of Ethyl β-apo-8′-carotenoate Plasma % [1, 4]: 93%
- Analytical Content as Equivalent of Ethyl β-apo-8′-carotenoate Skin % [1, 4]: 128%
- Analytical Content as Equivalent of Ethyl β-apo-8′-carotenoate Fat ([1]; trial MC-24/99, 30 mg/kg feed): 3.8 mg/kg
- Analytical Content as Equivalent of Ethyl β-apo-8′-carotenoate Plasma ([1]; trial MC-24/99, 30 mg/kg feed): 13.3 mg/kg
- Analytical Content as Equivalent of Ethyl β-apo-8′-carotenoate Skin ([1]; trial MC-24/99, 30 mg/kg feed): 4.8 mg/kg
- Analytical Content as Equivalent of Ethyl β-apo-8′-carotenoate Fat % [1, 5]: 87%
- Analytical Content as Equivalent of Ethyl β-apo-8′-carotenoate Plasma % [1, 5]: 82%
- Analytical Content as Equivalent of Ethyl β-apo-8′-carotenoate Skin % [1, 5]: 139%
Structure (SMILES): CCCC(C)OC(=O)C(C)=CC=CC(C)=CC=CC=C(C)C=CC=C(C)C=CC1=C(C)CCCC1(C)C (stereo not drawn) [compound (19), 2-pentyl beta-apo-8′-carotenoate]
- Shanks Chroma C*ab % of Controls [2, 6]: 105%
- Shanks Color Hue h*ab % of Controls [2, 6]: 98%
- Skin Chroma C*ab % of Controls [2, 6]: 106%
- Skin Color Hue h*ab % of Controls [2, 6]: 97%
- Shanks Chroma C*ab % of Controls [2, 7]: 108%
- Shanks Chroma C*ab Value [2, 7]: 60
- Shanks Color Hue h*ab % of Controls [2, 7]: 98%
- Shanks Color Hue h*ab Value [2, 7]: 82
- Shanks Visual Classification [2, 7]: +
- Skin Chroma C*ab % of Controls [2, 7]: 106%
- Skin Chroma C*ab Value [2, 7]: 34
- Skin Color Hue h*ab % of Controls [2, 7]: 96%
- Skin Color Hue h*ab Value [2, 7]: 73
- Skin Visual Classification [2, 7]: +
- Shanks Chroma C*ab % of Controls [2, 8]: 102%
- Shanks Chroma C*ab Value [2, 8]: 65
- Shanks Color Hue h*ab % of Controls [2, 8]: 98%
- Shanks Color Hue h*ab Value [2, 8]: 82
- Shanks Visual Classification [2, 8]: ++
- Skin Chroma C*ab % of Controls [2, 8]: 105%
- Skin Chroma C*ab Value [2, 8]: 38
- Skin Color Hue h*ab % of Controls [2, 8]: 97%
- Skin Color Hue h*ab Value [2, 8]: 76
- chroma C*a*b* values in the skin and in the shanks ([2]; versus the control): substantially enhanced
- color hue h*a*b* in the skin and in the shanks ([2]; versus the control): not significantly changed
- effectiveness in terms of concentration in the skin, and color intensity (chroma C*a*b*) in the skin and shanks ([2]; versus the control): significantly more effective
